The values that follow come from ChEMBL document CHEMBL5604062, “ASAP - ZIKV NS2B-NS3 protease fluorescence dose response” (2024).

Values joined by “and” are separate entries in the source; they are usually repeats but may differ in a detail not shown here. Equal entries are not always repeated.

The experiment concerns the target Nonstructural protein 3 (Zika virus, UniProt A0A024AXB9). Briefly: Functional biochemical assay to identify treatments for viral infectious disease that targets Zika NS2B-NS3 protease. Utilizing a direct enzyme activity measurement method, reading the fluorescence intensity is used to characterize the relative potency of inhibitors as IC50. Details: species or system PRVABC59.

Nonstructural protein 3, sequence (A0A024AXB9 whole entry): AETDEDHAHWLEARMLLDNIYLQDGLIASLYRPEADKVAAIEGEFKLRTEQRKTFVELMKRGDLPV

What is called IC50 is the midpoint of a concentration-inhibition curve. `CCn1nc(C)c(CN(C)Cc2ccc3c(c2)CCNCC3)c1C` registered an IC50 greater than 99.5 µM.

Turning to `CC[C@@H](C)c1nc(C)cc(N2CCC(n3ncc(N)c3C(F)(F)F)CC2)n1`, the IC50 is greater than 99.5 µM.

Take `CCc1cc(F)ccc1CC(=O)N1CCCc2cc(CCN)ccc21`: the IC50 was greater than 99.5 µM.

As for `Cn1cc(C(=O)N[C@@H](C(=O)Nc2cccc(CN)c2)c2ccc(OCc3ccccc3)cc2)cn1`, the IC50 was greater than 99.5 µM.

Turning to `COc1ccc(CNC(=O)[C@@H](NC(=O)OCc2ccccc2)c2ccc(OCc3ccccc3)cc2)cn1`, the IC50 was greater than 99.5 µM.

For the molecule `COC(=O)[C@@H](C)NC(=O)c1cc(Cl)ccc1NS(=O)(=O)c1ccc(Oc2ccccc2Cl)cc1`, the IC50 was greater than 99.5 µM.

In turn, `Cc1cccnc1COc1ccc(S(=O)(=O)Nc2ccc(Cl)cc2C(=O)O)cc1` had an IC50 greater than 99.5 µM.

Molecule `O=C(N[C@@H](C(=O)NCc1cnccn1)c1ccc(OCc2ccccc2)cc1)OCc1ccccc1` displayed an IC50 greater than 99.5 µM.

As to `Cn1c(COc2ccc(S(=O)(=O)Nc3ccc(Cl)cc3C(=O)O)cc2)nnc1C1CC1`, the half-maximal inhibitory concentration (IC50) was greater than 99.5 µM.

For `NCc1cccc(NC(=O)[C@@H](NC(=O)OCc2ccccc2)c2ccc(C(F)(F)F)cc2)c1`, 79.2 µM corresponded to half-maximal inhibition (IC50).

As to `O=C(O)c1cc(Cl)cc(F)c1NS(=O)(=O)c1ccc(Oc2ccccc2Cl)cc1`, the IC50 was 67 µM.

Regarding `NCCc1ccc(CNC(=O)[C@@H](NC(=O)OCc2ccccc2)c2ccc(OCc3ccccc3)cc2)cc1`, the IC50 is 16.3 µM and 13.9 µM.

`Cn1c(C(=O)N2CCCc3ccc(C(F)F)cc32)cc2c1CCNC2` gave a 50% inhibitory concentration (IC50) greater than 99.5 µM.

As to `NCCCc1ccc(C(=O)N2CC(c3cccc(Br)c3)C2)cc1`, the IC50 was greater than 99.5 µM.

The molecule `N[C@H]1CC[C@H](CNC(=O)[C@@H](NC(=O)OCc2ccccc2)c2ccc(OCc3ccccc3)cc2)CC1` showed an IC50 greater than 99.5 µM.

`Cc1ccc(CNC(=O)[C@@H](NC(=O)OCc2ccccc2)c2ccc(OCc3ccccc3)cc2)cn1` returned a concentration for half-maximal inhibition (IC50) greater than 99.5 µM.

On to `CN(C(=O)c1ccc2c(c1)[C@H](CN)CCC2)C1CCN(CC(F)F)CC1`, for which the IC50 was greater than 99.5 µM.

As to `NCc1cccc(NC(=O)[C@@H](NC(=O)c2cccnc2)c2ccc(OCc3ccccc3)cc2)c1`, the IC50 is greater than 99.5 µM.

Molecule `Cc1n[nH]c2cc(C(=O)N3CCC(C)(NC(=O)[C@H]4C[C@H](N(C)C)C4)CC3)ccc12` returned an IC50 greater than 99.5 µM.

For `NCc1ccccc1C1CCN(C(=O)[C@@]23CNC[C@]2(C(F)(F)F)C3)CC1`, the IC50 is greater than 99.5 µM.

`O=C(N[C@H](C(=O)NCc1ccccc1CO)c1ccc(OCc2ccccc2)cc1)OCc1ccccc1` returned an IC50 greater than 99.5 µM.

Consider `Cc1ccc([C@@H](NC(=O)OCc2ccccc2)C(=O)Nc2cccc(CN)c2)cc1C`, for which the IC50 was greater than 99.5 µM.

Regarding `CS(=O)(=O)NCc1cccc(CNC(=O)[C@@H](NC(=O)OCc2ccccc2)c2ccc(OCc3ccccc3)cc2)c1`, the IC50 was greater than 99.5 µM.

For the molecule `C[C@@H](O)c1cccc(N2CCC(c3nc(N)ncc3F)CC2)n1`, the IC50 was greater than 99.5 µM.

As to `O=C(O)c1cc(Cl)ccc1NS(=O)(=O)c1ccc(OCc2cccnc2)cc1`, the IC50 was greater than 99.5 µM.

`O=C(N[C@H](C(=O)NCc1cccc(CO)n1)c1ccc(OCc2ccccc2)cc1)OCc1ccccc1` gave an IC50 greater than 99.5 µM.

For `O=C(N[C@H](C(=O)NCc1cccc(CO)c1)c1ccc(OCc2ccccc2)cc1)OCc1ccccc1`, the IC50 was greater than 99.5 µM.

The molecule `C[C@@H](NC(=O)c1cc(Cl)ccc1NS(=O)(=O)c1ccc(Oc2ccccc2Cl)cc1)C(=O)O` yielded an IC50 greater than 99.5 µM.

Take `Cc1cc(CNC(=O)[C@@H](NC(=O)OCc2ccccc2)c2ccc(OCc3ccccc3)cc2)cc(C)n1`: the IC50 is greater than 99.5 µM.

For the molecule `CCN(CC(=O)NC)C(=O)c1cc(Cl)ccc1NS(=O)(=O)c1ccc(Oc2ccccc2Cl)cc1`, the IC50 was greater than 99.5 µM.

`NCc1cccc(NC(=O)[C@H]2c3ccc(Br)cc3CCN2C(=O)OCc2ccccc2)c1` showed an IC50 of 53.8 µM.

Molecule `CCc1ccc([C@@H](NC(=O)OCc2ccccc2)C(=O)Nc2cccc(CN)c2)cc1` gave an IC50 greater than 99.5 µM.

As for `Nc1ccc(CNC(=O)[C@@H](NC(=O)OCc2ccccc2)c2ccc(OCc3ccccc3)cc2)nc1`, the IC50 was greater than 99.5 µM.
